Source: US20200270233A1, “DHFR INHIBITORS, COMPOSITIONS, AND METHODS RELATED THERETO” (Vyera Pharmaceuticais LLC, priority 2017, published 2020)
Where two headings read alike, the source gives them in different places.

How the values were obtained:
T. gondii DHFR (tgDHFR) = biological target: T1, T. gondii DHFR (tgDHFR) (Toxoplasma gondii, UniProt Q07422); assay: biochemical; settings: for Average DHFR selectivity (h/tg): hDHFR IC50/tgDHFR IC50
T1 sequence (Q07422 1-610): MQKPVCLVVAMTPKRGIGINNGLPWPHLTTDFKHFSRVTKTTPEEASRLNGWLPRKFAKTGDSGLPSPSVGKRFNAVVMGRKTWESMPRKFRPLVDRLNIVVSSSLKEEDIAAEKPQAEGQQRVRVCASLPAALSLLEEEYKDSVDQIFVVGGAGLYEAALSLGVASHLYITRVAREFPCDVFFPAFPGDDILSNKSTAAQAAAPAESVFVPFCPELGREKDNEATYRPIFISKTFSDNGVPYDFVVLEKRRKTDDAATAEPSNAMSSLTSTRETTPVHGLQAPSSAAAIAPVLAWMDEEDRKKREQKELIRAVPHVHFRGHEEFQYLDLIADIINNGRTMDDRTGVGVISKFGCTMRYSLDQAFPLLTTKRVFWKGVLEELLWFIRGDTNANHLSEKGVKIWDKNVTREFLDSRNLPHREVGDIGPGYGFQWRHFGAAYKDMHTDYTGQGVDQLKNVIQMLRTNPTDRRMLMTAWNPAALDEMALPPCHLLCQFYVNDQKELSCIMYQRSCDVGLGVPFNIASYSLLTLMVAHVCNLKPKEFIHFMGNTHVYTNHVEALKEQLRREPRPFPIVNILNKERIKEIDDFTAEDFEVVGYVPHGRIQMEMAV

hDHFR = biological target: T2, hDHFR (Homo sapiens, UniProt P00374); assay type: biochemical; settings: pIC50 = -log10 IC50, at least three replicates, read-out: hDHFR pIC50-DHFR primary assay (converted)
T2 sequence (P00374 1-187): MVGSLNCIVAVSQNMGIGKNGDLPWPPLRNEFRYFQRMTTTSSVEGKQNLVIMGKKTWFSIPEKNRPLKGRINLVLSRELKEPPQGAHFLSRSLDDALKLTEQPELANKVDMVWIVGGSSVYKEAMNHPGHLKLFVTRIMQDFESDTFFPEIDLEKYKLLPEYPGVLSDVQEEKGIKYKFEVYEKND

[1] = Table 16, pIC50 = -log10 IC50, at least three replicates, read-out: tgDHFR pIC50-DHFR primary assay (converted)

Row | Structure (SMILES) | IC50 (hDHFR; Table 16) [nM] | IC50 (T. gondii DHFR (tgDHFR)) [nM] | other results
1 | Nc1ncc(N2CCN(c3cccc(-c4cnc(O)nc4)n3)CC2)c(N)n1 [Compound 181, 5-(6-(4-(2,4-diaminopyrimidin-5-yl)piperazin-1-yl)pyridin-2-yl)pyrimidin-2-ol] | 16.6 | – | Average DHFR selectivity (h/tg) (T. gondii DHFR (tgDHFR); Table 16): 13.94; IC50 (T. gondii DHFR (tgDHFR); [1]): 1.2 nM
2 | CCCc1nc(N)nc(N)c1N1CCN(c2ccc(F)cc2)CC1 [Compound 52, 5-(4-(4-fluorophenyl)piperazin-1-yl)-6-propylpyrimidine-2,4-diamine] | 10000 | 33.1 | –
3 | CCCc1nc(N)nc(N)c1N1CCN(c2ccc(OC)cn2)CC1 [Compound 60, 5-(4-(5-methoxypyridin-2-yl)piperazin-1-yl)-6-propylpyrimidine-2,4-diamine] | 2880 | 20 | –
4 | COc1ncc(-c2ccc(F)c(N3CCN(c4cnc(N)nc4N)CC3)c2)cn1 [Compound 164] | 562 | – | Average DHFR selectivity (h/tg) (T. gondii DHFR (tgDHFR); Table 16): 65.26; IC50 (T. gondii DHFR (tgDHFR); [1]): 8.71 nM
5 | Nc1ncc(N2CCN(c3cccc(-c4cnc(C5CC5)nc4)c3)CC2)c(N)n1 [Compound 86] | – | – | IC50 (hDHFR; Table 18): 832 nM
6 | Nc1ncc(N2CCN(c3cccc(C4CCOCC4)c3)CC2)c(N)n1 [Compound 110, 5-(4-(3-(tetrahydro-2H-pyran-4-yl)phenyl)piperazin-1-yl)pyrimidine-2,4-diamine] | 6170 | 34.7 | IC50 (hDHFR; Table 20): 7760 nM
7 | CC1CN(c2cccc(-c3ccccc3)c2)CCN1c1cnc(N)nc1N (stereo not drawn) [Compound 27, 5-(4-([1,1′-biphenyl]-3-yl)-2-methylpiperazin-l-yl)pyrimidine-2,4-diamine] | 30200 | 138 | –
8 | Nc1nc(N)c(N2CCN(c3ccccc3)CC2)c(CC2CC2)n1 [Compound 106] | 5890 | 27.5 | –
9 | Nc1ncc(N2CCC(c3ccccc3)CC2)c(N)n1 [Compound 15, 5-(4-phenylpiperidin-1-yl)pyrimidine-2,4-diamine] | 4070 | 162 | –
10 | CN(C)c1ncc(-c2cccc(N3CCN(c4cnc(N)nc4N)CC3)c2)cn1 [Compound 96] | 1150 | 10 | –
11 | CNc1ncc(-c2cccc(N3CCN(c4cnc(N)nc4N)CC3)c2)cn1 [Compound 97] | 741 | 5.62 | –
12 | CCc1nc(N)nc(N)c1N1CCN(c2ccc(C)cc2)CC1 [Compound 39, 6-ethyl-5-(4-(p-tolyl)piperazin-1-yl)pyrimidine-2,4-diamine] | 1740 | 12.3 | –
13 | Nc1ncc(N2CCN(c3cccc(-c4cnc(Cl)nc4)c3)CC2)c(N)n1 [Compound 100] | 1320 | 6.76 | IC50 (hDHFR; Table 18): 1320 nM
14 | CC1CN(c2cnc(N)nc2N)CCN1c1cccc(-c2ccccc2)c1 (stereo not shown) [Compound 26, 5-(4-([1,1′-biphenyl]-3-yl)-3-methylpiperazin-1-yl)pyrimidine-2,4-diamine] | 30.2 | 2 | –
15 | CCCc1nc(N)nc(N)c1N1CCN(c2ncc(C)cn2)CC1 [Compound 59, 5-(4-(5-methylpyrimidin-2-yl)piperazin-1-yl)-6-propylpyrimidine-2,4-diamine] | 8130 | 70.8 | –
16 | CCc1nc(N)nc(N)c1N1CCN(c2ccc(F)cc2)CC1 [Compound 35, 6-ethyl-5-(4-(4-fluorophenyl)piperazin-1-yl)pyrimidine-2,4-diamine] | – | 6.92 | –
17 | CCc1nc(N)nc(N)c1N1CCN(c2ccncc2)CC1 [Compound 36, 6-ethyl-5-(4-(pyridin-4-yl)piperazin-1-yl)pyrimidine-2,4-diamine] | 30200 | 269 | –
18 | Nc1ncc(N2CCN(c3cccc(-c4cccc(F)c4)c3)CC2)c(N)n1 [Compound 64] | 1070 | 11.5 | –
19 | Cc1ncc(-c2cccc(N3CCN(c4cnc(N)nc4N)CC3)c2)cn1 [Compound 69, 5-(4-(3-(2-methylpyrimidin-5-yl)phenyl)piperazin-1-yl)pyrimidine-2,4-diamine] | – | 4.47 | –
20 | Nc1ncc(N2CCN(c3cccc(-c4cncnc4)c3)CC2)c(N)n1 [Compound 74] | – | – | IC50 (hDHFR; Table 18): 3090 nM
